Results as given in PubChem BioAssay AID1963838 (Molecular Pharmacology Branch, DTP, NCI, 2024).
Several values for one entry are separate records, joined by “and”; a condition that tells them apart may be missing. Identical values can stand only once.

Test system: 855422-203-R-J1-PDC complex spheroid viability
Assay: Anticancer human tumor 855422-203-R-J1-PDC patient-derived bladder carcinoma cell line growth inhibition [POLQ]
Conditions: for viability, T/C: stronger effect = lower value
Procedure: Multicellular complex tumor spheroid response to Polymerase (POL) inhibitors (novobiocin, ART-558, RP6685) in combination with a variety of drugs and investigational agents in selected tumor cell lines
The POL inhibitors (novobiocin, ART-558, and RP6685) were evaluated both individually and in combination with standard of care and investigational anticancer small molecules within a complex spheroid model of solid tumors. . Complex spheroids include a stromal component modeled by human endothelial cells (HUVEC) and fibroblasts modeled by human mesenchymal stem cells (MSCs). The concentration ranges selected for each drug and investigational agent were based upon clinically achievable concentrations if the clinical Cmax of the agent was known.
Compounds. The drugs and investigational agents: novobiocin (NSC847541), ART-558 (NSC835418), RP-6685 (NSC848927), peposertib (NSC802822), ceralasertib (NSC780249), elimusertib (NSC800525), camonsertib (NSC841442), AZD-1390 (NSC803789), olaparib (NSC753686), talazoparib (NSC767125), rucaparib (NSC756644), sotorasib (NSC818433), MRTX-1133 (NSC836407), SN-38 (NSC673596), topotecan (NSC609699), epotoside (NSC141540), doxorubicin (NSC123127), gemcitabine (NSC613327), 5-fluorouracil (NSC19893), paclitaxel (NSC125973), vemurafenib (NSC761431), MSA-2 (NSC828583), SN-011 (NSC837082), adavosertib (NSC754352), prexasertib (NSC758257), carboplatin (NSC241240) and oxaliplatin (NSC266046), were obtained from the National Cancer Institute (NCI) Developmental Therapeutics Program Chemical Repository (21). The FDA-approved anticancer drug set is available from the Developmental Therapeutics Program at https://dtp.cancer.gov/organization/dscb/obtaining/. […] The stock solutions were prepared in dimethyl sulfoxide (DMSO, Sigma-Aldrich, St. Louis, MO, cat. D2650), except for the platinum compounds which were prepared in saline (Quality Biological, Gaithersburg, MD, cat. 114-055-101), at 800-fold the tested concentration and stored at -70 degrees C prior to their use. All drugs and investigational agents were tested over a range starting from a high concentration at or near the clinical Cmax and decreasing in half-log increments. If the clinical Cmax for an agent had not been determined, the highest concentration tested was 10 microM, except for SN-38, which was tested at a high concentration of 1 microM.
Cell Culture. All cells were maintained in an incubator at 37 degrees C and 5% CO2 with 95% humidity. The PDC lines were cultured according to standard operating procedures established by the NCI PDMR (https://pdmr.cancer.gov). Table 3 of the manuscript, lists the cell lines along with the number of the three cell types plated to form the mct-spheroids and media for tumor cell growth. After thawing, all PDC lines, except 997537-175-T-J1-PDC and 415267-285-R-J2-PDC, were cultured in Matrigel-coated flasks prepared with a working solution of 1X Ham's F-12 nutrient mix, without supplementation (Thermo Fisher Scientific, cat. 11765054), 100 U/mL penicillin-streptomycin (Thermo Fisher Scientific, cat. 15140122), and 2.5% Matrigel (Corning Inc., Corning, NY, cat. 354248) for the first three passages. The two PDC lines 997537-175-T-J1-PDC and 415267-285-R-J2-PDC were cultured on uncoated flasks. The 857933-349-R-J2-PDC line was cultured in 6C/Colon 1B media containing advanced DMEM/F-12 (Thermo Fisher Scientific, cat. 12634028), 10 mM HEPES (Thermo Fisher Scientific, cat. 15630080), 1X GlutaMAX supplement (Thermo Fisher Scientific, cat. 35050061), 0.1 mg/mL primocin (InvivoGen, San Diego, CA, cat. ant-pm-2), 10% defined fetal bovine serum, heat inactivated (HyClone Laboratories Inc., Logan, UT, cat. SH30070.03HI), 50% L-WRN conditioned media (ATCC, cat. CRL-3276), 1.25 mM N-Acetyl-L-cysteine (Sigma-Aldrich, cat. A9165), 10 mM nicotinamide (Sigma-Aldrich, cat. N0636), 1X B-27 supplement (Thermo Fisher Scientific, cat. 17504044), 1X N-2 supplement (Thermo Fisher Scientific, cat. […]

[1] = curve of first compound, second compound 0.0316 µM
[2] = curve of first compound, second compound 0.1 µM
[3] = curve of first compound, second compound 0.316 µM
[4] = curve of first compound, second compound 1 µM
[5] = curve of first compound, second compound 3.16 µM
[6] = curve of first compound, second compound 10 µM
[7] = second compound 0.0316 µM, first compound 0.0316 µM
[8] = second compound 0.0316 µM, first compound 0.1 µM
[9] = second compound 0.0316 µM, first compound 0.316 µM
[10] = second compound 0.0316 µM, first compound 1 µM
[11] = second compound 0.0316 µM, first compound 3.16 µM
[12] = second compound 0.0316 µM, first compound 10 µM
[13] = second compound 0.1 µM, first compound 0.0316 µM
[14] = second compound 0.1 µM, first compound 0.1 µM
[15] = second compound 0.1 µM, first compound 0.316 µM
[16] = second compound 0.1 µM, first compound 1 µM
[17] = second compound 0.1 µM, first compound 3.16 µM
[18] = second compound 0.1 µM, first compound 10 µM
[19] = second compound 0.316 µM, first compound 0.0316 µM
[20] = second compound 0.316 µM, first compound 0.1 µM
[21] = second compound 0.316 µM, first compound 0.316 µM
[22] = second compound 0.316 µM, first compound 1 µM
[23] = second compound 0.316 µM, first compound 3.16 µM
[24] = second compound 0.316 µM, first compound 10 µM
[25] = second compound 1 µM, first compound 0.0316 µM
[26] = second compound 1 µM, first compound 0.1 µM
[27] = second compound 1 µM, first compound 0.316 µM
[28] = second compound 1 µM, first compound 1 µM
[29] = second compound 1 µM, first compound 3.16 µM
[30] = second compound 1 µM, first compound 10 µM
[31] = second compound 3.16 µM, first compound 0.0316 µM
[32] = second compound 3.16 µM, first compound 0.1 µM
[33] = second compound 3.16 µM, first compound 0.316 µM
[34] = second compound 3.16 µM, first compound 1 µM
[35] = second compound 3.16 µM, first compound 3.16 µM
[36] = second compound 3.16 µM, first compound 10 µM
[37] = second compound 10 µM, first compound 0.0316 µM
[38] = second compound 10 µM, first compound 0.1 µM
[39] = second compound 10 µM, first compound 0.316 µM
[40] = second compound 10 µM, first compound 1 µM
[41] = second compound 10 µM, first compound 3.16 µM
[42] = second compound 10 µM, first compound 10 µM
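Note: spheroids exposed to compounds for seven days before readout.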

## CCCS(=O)(=O)Nc1ccc(F)c(C(=O)c2c[nH]c3ncc(-c4ccc(Cl)cc4)cc23)c1F + Cc1cccc(N(C)C(=O)C2C(O)CCN2c2nc(C)cc(C(F)(F)F)c2C#N)c1
[1]
  IC50: 6.14 µM
[2]
  IC50: 6.18 µM
[3]
  IC50: 6.52 µM
[4]
  IC50: 6.04 µM
[5]
  IC50: 6.48 µM
[6]
  IC50: 6.72 µM
[7]
  viability, T/C: 104%
[8]
  viability, T/C: 131%
[9]
  viability, T/C: 99.9%
[10]
  viability, T/C: 104%
[11]
  viability, T/C: 109%
[12]
  viability, T/C: 6.85%
[13]
  viability, T/C: 98%
[14]
  viability, T/C: 119%
[15]
  viability, T/C: 99%
[16]
  viability, T/C: 103%
[17]
  viability, T/C: 121%
[18]
  viability, T/C: 8.21%
[19]
  viability, T/C: 103%
[20]
  viability, T/C: 125%
[21]
  viability, T/C: 101%
[22]
  viability, T/C: 110%
[23]
  viability, T/C: 115%
[24]
  viability, T/C: 14.1%
[25]
  viability, T/C: 97%
[26]
  viability, T/C: 111%
[27]
  viability, T/C: 96%
[28]
  viability, T/C: 107%
[29]
  viability, T/C: 123%
[30]
  viability, T/C: 5.7%
[31]
  viability, T/C: 97.8%
[32]
  viability, T/C: 133%
[33]
  viability, T/C: 139%
[34]
  viability, T/C: 127%
[35]
  viability, T/C: 128%
[36]
  viability, T/C: 4.79%
[37]
  viability, T/C: 109%
[38]
  viability, T/C: 134%
[39]
  viability, T/C: 139%
[40]
  viability, T/C: 180%
[41]
  viability, T/C: 142%
[42]
  viability, T/C: 2.01%

## COc1cccc2c1C(=O)c1c(O)c3c(c(O)c1C2=O)CC(O)(C(=O)CO)CC3OC1CC(N)C(O)C(C)O1 (stereo unspecified) + COC1C(OC(N)=O)C(O)C(Oc2ccc3c(O)c(NC(=O)c4ccc(O)c(CC=C(C)C)c4)c(=O)oc3c2C)OC1(C)C
[1]
  IC50: < 0.0316 µM
[2]
  IC50: < 0.0316 µM
[3]
  IC50: < 0.0316 µM
[4]
  IC50: < 0.0316 µM
[5]
  IC50: < 0.0316 µM
[6]
  IC50: < 0.0316 µM
[7]
  viability, T/C: 12.4%
[8]
  viability, T/C: 11.1%
[9]
  viability, T/C: 1.99%
[10]
  viability, T/C: 0.29%
[11]
  viability, T/C: 0.38%
[12]
  viability, T/C: 1.85%
[13]
  viability, T/C: 15.1%
[14]
  viability, T/C: 10.9%
[15]
  viability, T/C: 3.53%
[16]
  viability, T/C: 0.21%
[17]
  viability, T/C: 0.32%
[18]
  viability, T/C: 1.27%
[19]
  viability, T/C: 14.5%
[20]
  viability, T/C: 10.1%
[21]
  viability, T/C: 1.84%
[22]
  viability, T/C: 0.63%
[23]
  viability, T/C: 0.37%
[24]
  viability, T/C: 1.74%
[25]
  viability, T/C: 18.5%
[26]
  viability, T/C: 10.4%
[27]
  viability, T/C: 2.23%
[28]
  viability, T/C: 0.32%
[29]
  viability, T/C: 0.3%
[30]
  viability, T/C: 2.92%
[31]
  viability, T/C: 15.4%
[32]
  viability, T/C: 10.4%
[33]
  viability, T/C: 2.63%
[34]
  viability, T/C: 0.31%
[35]
  viability, T/C: 0.58%
[36]
  viability, T/C: 1.48%
[37]
  viability, T/C: 16.2%
[38]
  viability, T/C: 9.82%
[39]
  viability, T/C: 2.61%
[40]
  viability, T/C: 0.29%
[41]
  viability, T/C: 0.47%
[42]
  viability, T/C: 1.58%

## CC[C@@]1(O)C(=O)OCc2c1cc1n(c2=O)Cc2cc3c(CN(C)C)c(O)ccc3nc2-1
Compound 0.000316 µM
  viability, T/C: 113% and 104% and 102%
Compound 0.001 µM
  viability, T/C: 102% (2×) and 109%
Compound 0.00316 µM
  viability, T/C: 105% and 98.4% and 122%
Compound 0.01 µM
  viability, T/C: 90.4% and 90% and 93.3%
Compound 0.0316 µM
  viability, T/C: 54.6% and 99.2% and 57.2%
Compound 0.1 µM
  viability, T/C: 10.1% and 17.6% and 11.1%
Curve of compound
  IC50: 0.0359 µM and 0.0631 µM and 0.0371 µM
